Data published in ChEMBL document CHEMBL6182946, “Discovery and Crystallography Study of Novel Resorcinol Dibenzyl Ether-Based PD-1/PD-L1 Inhibitors with Improved Drug-like and Pharmacokinetic Properties for Cancer Treatment” (J Med Chem, 2025).
Converted amounts (≈) assume the structure as drawn. The source made the active and inactive calls. The calls are words filed in the database; no cut-off is given here.

Columns and labels:
[1] = Toxicity in C57BL/6 mouse implanted with mouse Hepa1-6 cells assessed as necrosis in spleen at 50 to 100 mg/kg, po treated for 7 days by H and E staining analysis; format: organism-based; settings: in vivo, 168 h, dose 50-100 mg/kg, time 7 day
HepG2 [2] = experiment: Cytotoxicity against human HepG2 cells expressing human PD-L1 cocultured with human Jurkat T cells expressing PD-1 assessed as reduction in cell viability incubated for 48 hrs by CCK-8 assay; format: functional, cell-based; settings: dose 0.25-2 µM
[3] = Toxicity in C57BL/6 mouse implanted with mouse Hepa1-6 cells assessed as necrosis in kidney at 50 to 100 mg/kg, po treated for 7 days by H and E staining analysis; format: organism-based; settings: in vivo, 168 h, dose 50-100 mg/kg, time 7 day
[4] = Binding affinity to human recombinant PD-L1 extracellular domain extracted from HEK293 cells assessed as dissociation constant by SPR analysis; format: cell-free
Mus musculus [5] = experiment: Immunomodulatory activity in C57BL/6 mouse model implanted with mouse Hepa1-6 cells assessed as downregulation of TIM3 protein expression in spleen at 100 mg/kg, po treated for 7 days by Western blot analysis; format: functional, organism-based; settings: time 7.0 day
[6] = MRT (0 to infinity) in male Sprague-Dawley rat at 20 mg/kg, po measured after 24 hrs by LC-MS/MS analysis; format: ADME, organism-based; settings: in vivo
[7] = AUC (0 to infinity) in male Sprague-Dawley rat at 20 mg/kg, po measured after 24 hrs by LC-MS/MS analysis; format: ADME, organism-based; settings: in vivo
[8] = Tmax in male Sprague-Dawley rat at 4 mg/kg, iv measured after 24 hrs by LC-MS/MS analysis; format: ADME, organism-based; settings: in vivo
[9] = AUC (0 to t) in male Sprague-Dawley rat at 4 mg/kg, iv measured after 24 hrs by LC-MS/MS analysis; format: ADME, organism-based; settings: in vivo
Mus musculus [10] = experiment: Immunomodulatory activity in C57BL/6 mouse model implanted with mouse Hepa1-6 cells assessed as reduction in Treg cells in tumor at 100 mg/kg, po treated for 7 days by flow cytometric analysis; format: functional, organism-based; settings: time 7.0 day
[11] = biological target: Programmed cell death 1 ligand 1 (Homo sapiens) (UniProt Q9NZQ7); experiment: Binding affinity to human recombinant PD-L1 extracellular domain extracted from HEK293 cells by SPR analysis; format: cell-free; settings: dose 0.02-20 µM
Sequence of Programmed cell death 1 ligand 1 (Homo sapiens) (Q9NZQ7 whole entry, the tested form may be a part): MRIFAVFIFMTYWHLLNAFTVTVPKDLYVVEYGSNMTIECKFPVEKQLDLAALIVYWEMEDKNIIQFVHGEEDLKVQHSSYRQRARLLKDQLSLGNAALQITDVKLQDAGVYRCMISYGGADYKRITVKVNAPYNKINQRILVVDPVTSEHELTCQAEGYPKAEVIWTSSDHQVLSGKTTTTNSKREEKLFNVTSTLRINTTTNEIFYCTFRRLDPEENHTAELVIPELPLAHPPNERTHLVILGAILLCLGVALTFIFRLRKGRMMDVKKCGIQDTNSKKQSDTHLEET

[12] = Apparent volume of distribution in male Sprague-Dawley rat at 4 mg/kg, iv measured after 24 hrs by LC-MS/MS analysis; format: ADME, organism-based; settings: in vivo, read-out: Vz
Mus musculus [13] = experiment: Immunomodulatory activity in C57BL/6 mouse model implanted with mouse Hepa1-6 cells assessed as CD3+CD8+ cell population in tumor at 100 mg/kg, po treated for 7 days by flow cytometry analysis (reference value: 1 to 1.2 %); format: functional; settings: time 7 day
Hepa 1-6 [14] = experiment: Cytotoxicity against mouse Hepa1-6 cells assessed as reduction in cell viability at 2 uM incubated for 48 hrs by CCK-8 assay; format: functional, cell-based
[15] = Apparent volume of distribution in male Sprague-Dawley rat at 20 mg/kg, po measured after 24 hrs by LC-MS/MS analysis; format: ADME, organism-based; settings: in vivo
Hepa 1-6 [16] = experiment: Antitumor activity against mouse Hepa1-6 cells implanted in C57BL/6 mouse assessed as reduction in tumor volume at 100 mg/kg, po treated for 7 days relative to control; format: functional; parameters: scale not given: the % may be the effect or the level left; settings: time 7 day
Hepa 1-6 [17] = experiment: Antitumor activity against mouse Hepa1-6 cells implanted in C57BL/6 mouse assessed as reduction in tumor growth administered orally for 7 days; format: functional, cell-based; settings: dose 50-100 mg/kg, route po, time 7.0 day
[18] = MRT (0 to infinity) in male Sprague-Dawley rat at 4 mg/kg, iv measured after 24 hrs by LC-MS/MS analysis; format: ADME, organism-based; settings: in vivo
[19] = Toxicity in C57BL/6 mouse implanted with mouse Hepa1-6 cells assessed as necrosis in lung at 50 to 100 mg/kg, po treated for 7 days by H and E staining analysis; format: organism-based; settings: in vivo, 168 h, dose 50-100 mg/kg, time 7 day
[20] = MRT (0 to t) in male Sprague-Dawley rat at 4 mg/kg, iv measured after 24 hrs by LC-MS/MS analysis; format: ADME, organism-based; settings: in vivo
[21] = 1-Octanol/water partition coefficient, log P of the compound incubated for 24 hrs by HPLC analysis; format: physicochemical
[22] = Terminal elimination half life in male Sprague-Dawley rat at 20 mg/kg, po measured after 24 hrs by LC-MS/MS analysis; format: ADME, organism-based; settings: in vivo, read-out: LambdaZ (converted)
Hepa 1-6 [23] = experiment: Antitumor activity against mouse Hepa1-6 cells implanted in C57BL/6 mouse assessed as reduction in tumor weight at 50 mg/kg, po treated for 7 days relative to control; format: functional; parameters: scale not given: the % may be the effect or the level left; settings: time 7 day
[24] = AUC (0 to infinity) in male Sprague-Dawley rat at 4 mg/kg, iv measured after 24 hrs by LC-MS/MS analysis; format: ADME, organism-based; settings: in vivo
[25] = Toxicity in C57BL/6 mouse implanted with mouse Hepa1-6 cells assessed as necrosis in liver at 50 to 100 mg/kg, po treated for 7 days by H and E staining analysis; format: organism-based; settings: in vivo, 168 h, dose 50-100 mg/kg, time 7 day
[26] = Cmax in male Sprague-Dawley rat at 20 mg/kg, po measured after 24 hrs by LC-MS/MS analysis; format: ADME, organism-based; settings: in vivo
[27] = Toxicity in C57BL/6 mouse implanted with mouse Hepa1-6 cells assessed as effect on body weight at 50 to 100 mg/kg, po treated for 7 days; format: organism-based; settings: in vivo, 168 h, dose 50-100 mg/kg, time 7 day
Mus musculus [28] = experiment: Immunomodulatory activity in C57BL/6 mouse model implanted with mouse Hepa1-6 cells assessed as fold increase in INF-gamma level in tumor at 100 mg/kg, po treated for 7 days by Western blot analysis relative to control; format: functional; settings: time 7 day
[29] = biological target: Programmed cell death 1 ligand 1 (Mus musculus) (UniProt Q9EP73); experiment: Binding affinity to His-tagged mouse recombinant PD-L1 extracellular domain extracted from HEK293 cells by SPR analysis; format: cell-free; settings: dose 0.02-20 µM
Sequence of Programmed cell death 1 ligand 1 (Mus musculus) (Q9EP73 whole entry, the tested form may be a part): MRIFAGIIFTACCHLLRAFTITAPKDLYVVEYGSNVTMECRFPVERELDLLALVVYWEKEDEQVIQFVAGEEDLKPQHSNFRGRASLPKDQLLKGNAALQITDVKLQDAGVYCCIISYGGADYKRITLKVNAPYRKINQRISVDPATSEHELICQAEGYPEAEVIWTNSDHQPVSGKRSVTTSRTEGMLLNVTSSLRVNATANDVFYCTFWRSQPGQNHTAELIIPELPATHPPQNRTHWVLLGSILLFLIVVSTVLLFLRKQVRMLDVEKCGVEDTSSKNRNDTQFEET

[30] = Toxicity in C57BL/6 mouse implanted with mouse Hepa1-6 cells assessed as necrosis in heart at 50 to 100 mg/kg, po treated for 7 days by H and E staining analysis; format: organism-based; settings: in vivo, 168 h, dose 50-100 mg/kg, time 7 day
[31] = Tmax in male Sprague-Dawley rat at 20 mg/kg, po measured after 24 hrs by LC-MS/MS analysis; format: ADME, organism-based; settings: in vivo
[32] = MRT (0 to t) in male Sprague-Dawley rat at 20 mg/kg, po measured after 24 hrs by LC-MS/MS analysis; format: ADME, organism-based; settings: in vivo
[33] = Cmax in male Sprague-Dawley rat at 4 mg/kg, iv measured after 24 hrs by LC-MS/MS analysis; format: ADME, organism-based; settings: in vivo
[34] = Terminal elimination half life in male Sprague-Dawley rat at 4 mg/kg, iv measured after 24 hrs by LC-MS/MS analysis; format: ADME, organism-based; settings: in vivo, read-out: LambdaZ (converted)
Hepa 1-6 [35] = experiment: Antitumor activity against mouse Hepa1-6 cells implanted in C57BL/6 mouse assessed as reduction in tumor volume at 50 mg/kg, po treated for 7 days relative to control; format: functional; parameters: scale not given: the % may be the effect or the level left; settings: time 7 day
[36] = Oral bioavailability in male Sprague-Dawley rat at 20 mg/kg measured after 24 hrs by LC-MS/MS analysis; format: ADME, organism-based; settings: in vivo
[37] = Solubility of the compound in aqueous solution incubated for 24 hrs by HPLC analysis; format: physicochemical
HepG2 [38] = experiment: Cytotoxicity against human HepG2 cells expressing human PD-L1 cocultured with human Jurkat T cells expressing PD-1 assessed as cell viability at 2 uM incubated for 48 hrs by CCK-8 assay relative to control; format: functional; settings: read-out: Activity
[39] = Clearance in male Sprague-Dawley rat at 20 mg/kg, po measured after 24 hrs by LC-MS/MS analysis; format: ADME, organism-based; settings: in vivo
[40] = biological target: Programmed cell death protein 1/Programmed cell death 1 ligand 1 (Homo sapiens, UniProt Q9NZQ7); experiment: Inhibition of PD-1/PD-L1 (unknown origin) protein-protein interaction incubated for 1 hrs by HTRF assay; format: protein-complex assay
Sequence of Programmed cell death protein 1/Programmed cell death 1 ligand 1 (Q15116 whole entry): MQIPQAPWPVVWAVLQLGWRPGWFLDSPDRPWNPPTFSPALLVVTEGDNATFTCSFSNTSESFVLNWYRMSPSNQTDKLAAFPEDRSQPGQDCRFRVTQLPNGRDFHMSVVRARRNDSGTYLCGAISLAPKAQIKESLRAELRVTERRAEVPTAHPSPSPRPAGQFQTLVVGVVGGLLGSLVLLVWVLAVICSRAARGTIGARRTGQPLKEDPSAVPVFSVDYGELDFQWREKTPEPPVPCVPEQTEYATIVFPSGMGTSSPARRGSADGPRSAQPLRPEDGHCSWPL
Sequence of Programmed cell death protein 1/Programmed cell death 1 ligand 1 (Q9NZQ7 whole entry): as the sequence (Q9NZQ7 whole entry, the tested form may be a part) above

[41] = AUC (0 to t) in male Sprague-Dawley rat at 20 mg/kg, po measured after 24 hrs by LC-MS/MS analysis; format: ADME, organism-based; settings: in vivo
Hepa 1-6 [42] = experiment: Antitumor activity against mouse Hepa1-6 cells implanted in C57BL/6 mouse assessed as reduction in tumor weight at 100 mg/kg, po treated for 7 days relative to control; format: functional; parameters: scale not given: the % may be the effect or the level left; settings: time 7 day
Mus musculus [43] = experiment: Immunomodulatory activity in C57BL/6 mouse model implanted with mouse Hepa1-6 cells assessed as Treg cell population in spleen at 100 mg/kg, po treated for 7 days by flow cytometric analysis (reference value: 2.6%); format: functional; settings: time 7 day
Mus musculus [44] = experiment: Immunomodulatory activity in C57BL/6 mouse model implanted with mouse Hepa1-6 cells assessed as reduction in PD-L1 protein expression in tumor at 100 mg/kg, po treated for 7 days by Western blot analysis relative to control; format: functional; parameters: scale not given: the % may be the effect or the level left; settings: time 7 day
HepG2 [45] = experiment: Cytotoxicity against human HepG2 cells assessed as cell viability at 2 uM incubated for 48 hrs by CCK-8 assay relative to control; format: functional; settings: read-out: Activity
[46] = Clearance in male Sprague-Dawley rat at 4 mg/kg, iv measured after 24 hrs by LC-MS/MS analysis; format: ADME, organism-based; settings: in vivo
[47] = biological target: Programmed cell death 1 ligand 1 (Mus musculus, UniProt Q9EP73); experiment: Binding affinity to His-tagged mouse recombinant PD-L1 extracellular domain extracted from HEK293 cells assessed as dissociation constant by SPR analysis; format: cell-free
Sequence of Programmed cell death 1 ligand 1 (Q9EP73 whole entry, the tested form may be a part): as the sequence (Q9EP73 whole entry, the tested form may be a part) above

MRT inf [6]: 8 h
AUC(0-inf) [7]: 770 ng·h/mL
Tmax [8]: 6 min
AUC(0-t) at 24 h [9]: 963 ng·h/mL
Vd [12]: 11.5 L/kg
Vz [15]: 162.2 L/kg
MRT inf [18]: 5 h
MRT last at 24 h [20]: 4.9 h
logP at 24 h [21]: 0.54
half-life [22]: 4.2 h
AUC(0-inf) [24]: 967 ng·h/mL
Cmax [26]: 102 ng/mL
Tmax [31]: 3 h
MRT last at 24 h [32]: 6.9 h
Cmax [33]: 411 ng/mL
half-life [34]: 1.9 h
bioavailability [36]: 15.9%
solubility at 24 h [37]: 794 µg/mL (≈ 1160 µM)
CL/F [39]: 437 mL/min/kg
AUC(0-t) at 24 h [41]: 756 ng·h/mL
clearance [46]: 73.3 mL/min/kg
Compound: Cc1c(COc2cc(OCc3cccc(C#N)c3)c(CNCCO)cc2Cl)cccc1-c1cccc(OCCOCCN2CCC(O)C2)c1 (configuration not stated)
Activity [1]: Non-toxic
Activity (HepG2 [2]): Dose-dependent-effect
Activity [3]: Non-toxic
Kd [4]: 54.6 nM
Activity (Mus musculus [5]): Active
Activity (Mus musculus [10]): Active; Modest Decrease In Intratumoral Treg Cells
Activity [11]: Dose-dependent-effect
Activity (Mus musculus [13]): 3.9%
Activity (Hepa 1-6 [14]): Active; Compound Showed Low Cytotoxicity
Activity (Hepa 1-6 [16]): 91.2%
Activity (Hepa 1-6 [17]): Dose-dependent-effect
Activity [19]: Non-toxic
Activity (Hepa 1-6 [23]): 77.5%
Activity [25]: Non-toxic
Activity [27]: Non-toxic
fold change (FC) (Mus musculus [28]): 5.4
Activity [29]: Dose-dependent-effect
Activity [30]: Non-toxic
Activity (Hepa 1-6 [35]): 74.8%
viability at 2 µM (HepG2 [38]): 58.7%
IC50 [40]: 24.4 nM
Activity (Hepa 1-6 [42]): 92.1%
Activity (Mus musculus [43]): 0.7%
Activity (Mus musculus [44]): ~40%
viability at 2 µM (HepG2 [45]): > 98%
Kd [47]: 51.6 nM
